Data as given in patent publication US10717749B2, “Macrocyclic sulfondiimine compounds” (BAYER PHARMA AKTIENGESELLSCHAFT, priority 2015, dated 2020).

Tests used:
[1] = target: T1, CDK2/CycE (Homo sapiens, UniProt P24941); assay: CDK2/CycE high ATP kinase assay (Method 2b, TR-FRET, 2 mM ATP); format: biochemical
T1 construct: GST; purchased ProQinase GmbH (Freiburg, Germany); host or cells: insect cells (Sf9)
Description: 2b. CDK2/CycE High ATP Kinase Assay:
CDK2/CycE-inhibitory activity of compounds of the present invention at 2 mM adenosine-tri-phosphate (ATP) was quantified employing the CDK2/CycE TR-FRET (TR-FRET=Time Resolved Fluorescence Resonance Energy Transfer) assay as described in the following paragraphs.
Recombinant fusion proteins of GST and human CDK2 and of GST and human CycE, expressed in insect cells (Sf9) and purified by Glutathion-Sepharose affinity chromatography, were purchase from ProQinase GmbH (Freiburg, Germany). As substrate for the kinase reaction biotinylated peptide biotin-Ttds-YISPLKSPYKISEG (C-terminus in amid form) was used which can be purchased e.g. from the company JERINI peptide technologies (Berlin, Germany).
For the assay 50 nl of a 100 fold concentrated solution of the test compound in DMSO was pipetted into a black low volume 384 well microtiter plate (Greiner Bio-One, Frickenhausen, Germany), 2 μl of a solution of CDK2/CycE in aqueous assay buffer [50 mM Tris/HCl pH 8.0, 10 mM MgCl2, 1.0 mM dithiothreitol, 0.1 mM sodium ortho-vanadate, 0.01% (v/v) Nonidet-P40 (Sigma)] were added and the mixture was incubated for 15 min at 22° C. to allow pre-binding of the test compounds to the enzyme before the start of the kinase reaction. […] The concentration of CDK2/CycE was adjusted depending of the activity of the enzyme lot and was chosen appropriate to have the assay in the linear range, typical concentrations were in the range of 15 ng/ml. The reaction was stopped by the addition of 5 μl of a solution of TR-FRET detection reagents (0.2 μM streptavidine-XL665 [Cisbio Bioassays, Codolet, France] and 1 nM anti-RB(pSer807/pSer811)-antibody from BD Pharmingen [#558389] and 1.2 nM LANCE EU-W1024 labeled anti-mouse IgG antibody [Perkin-Elmer, product no. AD0077, as an alternative a Terbium-cryptate-labeled anti-mouse IgG antibody from Cisbio Bioassays can be used]) in an aqueous EDTA-solution (100 mM EDTA, 0.2% (w/v) bovine serum albumin in 100 mM HEPES pH 7.5).
(§1) The resulting mixture was incubated 1 h at 22° C. to allow the formation of complex between the phosphorylated biotinylated peptide and the detection reagents. Subsequently the amount of phosphorylated substrate was evaluated by measurement of the resonance energy transfer from the Eu-chelate to the streptavidine-XL. Therefore, the fluorescence emissions at 620 nm and 665 nm after excitation at 350 nm wer measured in a TR-FRET reader, e.g. a Rubystar (BMG Labtechnologies, Offenburg, Germany) or a Viewlux (Perkin-Elmer). The ratio of the emissions at 665 nm and at […] was taken as the measure for the amount of phosphorylated substrate. The data were normalised (enzyme reaction without inhibitor=0% inhibition, all other assay components but no enzyme=100% inhibition).

[2] = target: T2, CDK9/CycT1 (Homo sapiens, UniProt P50750); assay: CDK9/CycT1 kinase assay (Method 1a, TR-FRET, 10 μM ATP); format: biochemical; details: for IC50: Method 1a, 10 μM ATP; for Selectivity CDK9 over CDK2: IC50 (CDK2)/IC50 (CDK9): Methods 1a and 2a, minimal values
T2 construct: Recombinant full-length His-tagged human CDK9 and CycT1; His; purchased Invitrogen PV4131; host or cells: insect cells
T2 sequence (P50750 whole entry): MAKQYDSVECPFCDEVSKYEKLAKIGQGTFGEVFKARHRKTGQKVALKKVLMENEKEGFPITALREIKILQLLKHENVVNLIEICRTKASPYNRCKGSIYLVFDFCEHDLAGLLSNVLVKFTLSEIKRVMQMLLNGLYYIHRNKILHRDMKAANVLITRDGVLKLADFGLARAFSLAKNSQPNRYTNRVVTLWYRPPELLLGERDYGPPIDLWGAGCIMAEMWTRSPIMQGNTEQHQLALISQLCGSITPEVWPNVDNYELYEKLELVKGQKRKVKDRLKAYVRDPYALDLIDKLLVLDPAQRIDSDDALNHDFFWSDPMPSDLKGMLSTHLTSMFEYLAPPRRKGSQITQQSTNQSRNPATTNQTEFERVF
T2 sequence (O60563 whole entry partner): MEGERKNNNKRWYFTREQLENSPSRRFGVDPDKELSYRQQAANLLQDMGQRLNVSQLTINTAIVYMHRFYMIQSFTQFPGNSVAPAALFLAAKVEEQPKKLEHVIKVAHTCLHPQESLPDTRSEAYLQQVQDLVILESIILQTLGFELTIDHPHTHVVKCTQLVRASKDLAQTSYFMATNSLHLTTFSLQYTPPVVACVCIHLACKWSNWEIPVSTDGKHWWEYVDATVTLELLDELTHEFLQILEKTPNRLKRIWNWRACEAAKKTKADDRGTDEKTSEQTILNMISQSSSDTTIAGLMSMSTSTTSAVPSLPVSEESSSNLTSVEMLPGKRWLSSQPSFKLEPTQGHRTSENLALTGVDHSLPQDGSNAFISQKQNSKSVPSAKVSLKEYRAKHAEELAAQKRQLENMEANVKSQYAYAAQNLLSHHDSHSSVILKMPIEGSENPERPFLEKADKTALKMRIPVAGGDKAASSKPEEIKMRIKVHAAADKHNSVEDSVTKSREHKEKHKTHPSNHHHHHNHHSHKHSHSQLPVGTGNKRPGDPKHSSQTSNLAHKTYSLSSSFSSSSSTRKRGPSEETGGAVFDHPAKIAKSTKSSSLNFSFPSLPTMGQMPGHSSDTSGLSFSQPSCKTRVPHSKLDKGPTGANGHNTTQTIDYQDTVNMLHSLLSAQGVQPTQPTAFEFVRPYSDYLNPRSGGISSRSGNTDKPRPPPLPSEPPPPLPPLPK
Source text: 1a. CDK9/CycT1 Kinase Assay:
CDK9/CycT1-inhibitory activity of compounds of the present invention was quantified employing the CDK9/CycT1 TR-FRET assay as described in the following paragraphs:
Recombinant full-length His-tagged human CDK9 and CycT1, expressed in insect cells and purified by Ni-NTA affinity chromatography, were purchased from Invitrogen (Cat. No PV4131). As substrate for the kinase reaction biotinylated peptide biotin-Ttds-YISPLKSPYKISEG (C-terminus in amid form) was used which can be purchased e.g. from the company JERINI Peptide Technologies (Berlin, Germany). For the assay 50 nl of a 100 fold concentrated solution of the test compound in DMSO was pipetted into a black low volume 384 well microtiter plate (Greiner Bio-One, Frickenhausen, Germany), 2 μl of a solution of CDK9/CycT1 in aqueous assay buffer [50 mM Tris/HCl pH 8.0, 10 mM MgCl2, 1.0 mM dithiothreitol, 0.1 mM sodium ortho-vanadate, 0.01% (v/v) Nonidet-P40 (Sigma)] were added and the mixture was incubated for 15 min at 22° C. to allow pre-binding of the test compounds to the enzyme before the start of the kinase reaction. Then the kinase reaction was started by the addition of 3 μl of a solution of adenosine-tri-phosphate (ATP, […]=> final conc. in the 5 μl assay volume is 10 μM) and substrate (1.67 μM=> final conc. in the 5 μl assay volume is 1 μM) in assay buffer and the resulting mixture was incubated for a reaction time of 25 min at 22° C. The concentration of CDK9/CycT1 was adjusted depending of the activity of the enzyme lot and was chosen appropriate to have the assay in the linear range, typical concentrations were in the range of 1 μg/mL. The reaction was stopped by the addition of 5 μl of a solution of TR-FRET detection reagents (0.2 μM streptavidine-XL665 [Cisbio Bioassays, Codolet, France] and 1 nM anti-RB(pSer807/pSer811)-antibody from BD Pharmingen [#558389] and 1.2 nM LANCE EU-W1024 labeled anti-mouse IgG antibody [Perkin-Elmer, product no. AD0077]) in an aqueous EDTA-solution (100 mM EDTA, 0.2% (w/v) bovine serum albumin in 100 mM HEPES pH 7.5).
as §1, with “nm was” for “nm wer”, “a HTRF” for “a TR-FRET”

SMILES	IC50 [1]	IC50 [2]	Selectivity CDK9 over CDK2: IC50 (CDK2)/IC50 (CDK9) [2]
CS(=N)(Cc1cc2nc(c1)OCCCOc1cc(F)ccc1-c1cc(ncc1F)N2)=NC#N (racemic) [Example 3, (rac)-[{[15,19-difluoro-3,4-dihydro-2H,11H-10,6-(azeno)-12,16-(metheno)-1,5,11,13-benzodioxadiazacyclooctadecin-8-yl]methyl}(imino)methyl-λ^6-sulfanylidene]cyanamide]	62.4 nM	2.9 nM	2.1
CS(=N)(=N)Cc1cc2nc(c1)OCCCOc1cc(F)ccc1-c1cc(ncc1F)N2 [Example 1, 15,19-difluoro-8-[(S-methylsulfonodiimidoyl)methyl]-3,4-dihydro-2H,11H-10,6-(azeno)-12,16-(metheno)-1,5,11,13-benzodioxadiazacyclooctadecine]	140 nM	3.3 nM	5.0
CS(=N)(=N)Cc1cc2nc(c1C#N)OCCCOc1cc(F)ccc1-c1cc(ncc1F)N2 [Example 8, 15,19-difluoro-8-[(S-methylsulfonodiimidoyl)methyl]-3,4-dihydro-2H,11H-10,6-(azeno)-12,16-(metheno)-1,5,11,13-benzodioxadiazacyclooctadecine-7-carbonitrile]	378 nM	3.7 nM	19.2
CN=S(C)(=N)Cc1cc2nc(c1)OCCCOc1cc(F)ccc1-c1cc(ncc1F)N2 (racemic) [Example 4, (rac)-8-[(N,S-dimethylsulfonodiimidoyl)methyl]-15,19-difluoro-3,4-dihydro-2H,11H-10,6-(azeno)-12,16-(metheno)-1,5,11,13-benzodioxadiazacyclooctadecine]	620 nM	9.2 nM	4.1
CS(=N)(=N)Cc1cc2cc(c1)OCCCCOc1c(ccc(F)c1F)-c1nc(ncc1F)N2 [Example 6, 16,20,21-trifluoro-9-[(S-methylsulfonodiimidoyl)methyl]-2,3,4,5-tetrahydro-12H-13,17-(azeno)-11,7-(metheno)-1,6,12,14-benzodioxadiazacyclononadecine]	12500 nM	8.2 nM	174
CN=S(C)(=N)Cc1cc2cc(c1)OCCCCOc1cc(F)ccc1-c1nc(ncc1F)N2 (racemic) [Example 10, (rac)-9-[(N,S-dimethylsulfonodiimidoyl)methyl]-16,20-difluoro-2,3,4,5-tetrahydro-12H-13,17-(azeno)-11,7-(metheno)-1,6,12,14-benzodioxadiazacyclononadecine]	1650 nM	–	–
CS(=N)(Cc1cc2cc(c1)OCCCCOc1cc(F)ccc1-c1nc(ncc1F)N2)=NC1CC1 (racemic) [Example 9, (rac)-9-[(N-cyclopropyl-S-methylsulfonodiimidoyl)methyl]-16,20-difluoro-2,3,4,5-tetrahydro-12H-13,17-(azeno)-11,7-(metheno)-1,6,12,14-benzodioxadiazacyclononadecine]	997 nM	3.6 nM	39.7
CS(=N)(Cc1cc2nc(c1)OCCCOc1cc(F)ccc1-c1cc(ncc1F)N2)=NCCCO (racemic) [Example 2, (rac)-3-(2-{[15,19-difluoro-3,4-dihydro-2H,11H-10,6-(azeno)-12,16-(metheno)-1,5,11,13-benzodioxadiazacyclooctadecin-8-yl]methyl}-2-methyl-2λ^6-diazathia-1,2-dien-1-yl)propan-1-ol]	246 nM	2.9 nM	7.8
CS(=N)(=N)Cc1cc2cc(c1)OCCCCOc1cc(F)ccc1-c1nc(ncc1F)N2 [Example 5, 16,20-difluoro-9-[(S-methylsulfonodiimidoyl)methyl]-2,3,4,5-tetrahydro-12H-13,17-(azeno)-11,7-(metheno)-1,6,12,14-benzodioxadiazacyclononadecine]	1240 nM	3.4 nM	27.2
CS(=N)(=N)Cc1cc2cc(c1)OCCCCOc1c(F)cccc1-c1nc(ncc1F)N2 [Example 7, 16,21-difluoro-9-[(S-methylsulfonodiimidoyl)methyl]-2,3,4,5-tetrahydro-12H-13,17-(azeno)-11,7-(metheno)-1,6,12,14-benzodioxadiazacyclononadecine]	–	5.6 nM	209
